Test results as given in paper PMC10648927, “Examining the activity of cefepime-taniborbactam against Burkholderia cepacia complex and Burkholderia gladioli isolated from cystic fibrosis patients in the United States” (Antimicrobial Agents and Chemotherapy, 2023).
≈ marks a conversion by molar mass, not a printed value.

Tests used:
Parameters in all cases: agar dilution MIC, growth inhibition of clinical Burkholderia isolates
B. multivorans AU12481 = tested on: T1, B. multivorans AU12481; assay: microbe, parasite or virus in culture; details: Burkholderia multivorans, AU12481
T1 construct: AU12481
From the text: (§1) We evaluated the activity of cefepime-taniborbactam against a panel of 140 Bcc clinical isolates (i.e., species ambifaria, arboris, cenocepacia, cepacia, contaminans, diffusa, dolosa, multivorans, pseudomultivorans, pyrrocinia, seminalis, stabilis, ubonensis, and vietnamiensis) and 10 B. gladioli from the Burkholderia cepacia Research Laboratory and Repository (University of Michigan) ([22], [25], [31]) (Supplementary Material, Tables S1 and S2). K. pneumoniae ATCC 700603 carrying bla SHV-18 and K. pneumoniae ATCC BAA-1705 harboring bla KPC strains were used as controls for β-lactam and β-lactamase inhibitor integrity; all controls tested within the anticipated quality control ranges (Table S3). Minimum inhibitory concentration (MIC) results were interpreted using Clinical Laboratory Standards Institute (CLSI) breakpoints, where available ([32]). […] An alternative cefepime-taniborbactam provisional susceptible breakpoint of ≤16 µg/mL is supported by in vivo efficacy data from neutropenic murine infection models (thigh, complicated urinary tract, and lung) ([15] [–] [17]) and data from safety and pharmacokinetics studies in human volunteers ([33], [34]). The cefepime-taniborbactam antimicrobial activity was compared to cefepime, meropenem, meropenem-vaborbactam, and levofloxacin, to data published for first-line agents (e.g., ceftazidime and trimethoprim-sulfamethoxazole) and to those recommended by the CLSI for clinical testing (e.g., minocycline) against the Bcc and B. gladioli panel ([22], [32]). Of note, the MICs of all these agents were determined by the agar dilution method, which alongside broth microdilution, are recommended by the CLSI to assess the antimicrobial susceptibility of Bcc isolates ([32]).

B. multivorans AU14364 = tested on: T2, B. multivorans AU14364; assay: microbe, parasite or virus in culture; details: Burkholderia multivorans, AU14364
T2 construct: AU14364
From the text: as §1

B. multivorans AU19518 = tested on: T3, B. multivorans AU19518; assay: microbe, parasite or virus in culture; details: Burkholderia multivorans, AU19518
T3 construct: AU19518
From the text: as §1

B. cenocepacia AU28111 = tested on: T4, B. cenocepacia AU28111; assay: microbe, parasite or virus in culture; details: Burkholderia cenocepacia, AU28111
T4 construct: AU28111
From the text: as §1

B. multivorans AU10047 = tested on: T5, B. multivorans AU10047; assay: microbe, parasite or virus in culture; details: Burkholderia multivorans, AU10047
T5 construct: AU10047
From the text: as §1

B. pyrrocinia AU4348 = tested on: T6, B. pyrrocinia AU4348; assay: microbe, parasite or virus in culture; details: Burkholderia pyrrocinia, AU4348
T6 construct: AU4348
From the text: as §1

B. dolosa AU29021 = tested on: T7, B. dolosa AU29021; assay: microbe, parasite or virus in culture; details: Burkholderia dolosa, AU29021
T7 construct: AU29021
From the text: as §1

B. stabilis AU9035 = tested on: T8, B. stabilis AU9035; assay: microbe, parasite or virus in culture; details: Burkholderia stabilis, AU9035
T8 construct: AU9035
From the text: as §1

B. multivorans AU19729 = tested on: T9, B. multivorans AU19729; assay: microbe, parasite or virus in culture; details: Burkholderia multivorans, AU19729
T9 construct: AU19729
From the text: as §1

B. cenocepacia AU3663 = tested on: T10, B. cenocepacia AU3663; assay: microbe, parasite or virus in culture; details: Burkholderia cenocepacia, AU3663
T10 construct: AU3663
From the text: as §1

B. multivorans AU17545 = tested on: T11, B. multivorans AU17545; assay: microbe, parasite or virus in culture; details: Burkholderia multivorans, AU17545
T11 construct: AU17545
From the text: as §1

B. cenocepacia AU19530 = tested on: T12, B. cenocepacia AU19530; assay: microbe, parasite or virus in culture; details: Burkholderia cenocepacia, AU19530
T12 construct: AU19530
From the text: as §1

B. cepacia AU0108 = tested on: T13, B. cepacia AU0108; assay: microbe, parasite or virus in culture; details: Burkholderia cepacia, AU0108
T13 construct: AU0108
From the text: as §1

B. cenocepacia AU12265 = tested on: T14, B. cenocepacia AU12265; assay: microbe, parasite or virus in culture; details: Burkholderia cenocepacia, AU12265
T14 construct: AU12265
From the text: as §1

B. vietnamiensis AU19457 = tested on: T15, B. vietnamiensis AU19457; assay: microbe, parasite or virus in culture; details: Burkholderia vietnamiensis, AU19457
T15 construct: AU19457
From the text: as §1

B. multivorans AU14371 = tested on: T16, B. multivorans AU14371; assay: microbe, parasite or virus in culture; details: Burkholderia multivorans, AU14371
T16 construct: AU14371
From the text: as §1

B. cepacia AU17630 = tested on: T17, B. cepacia AU17630; assay: microbe, parasite or virus in culture; details: Burkholderia cepacia, AU17630
T17 construct: AU17630
From the text: as §1

B. multivorans AU22892 = tested on: T18, B. multivorans AU22892; assay: microbe, parasite or virus in culture; details: Burkholderia multivorans, AU22892
T18 construct: AU22892
From the text: as §1

B. gladioli AU29541 = tested on: T19, B. gladioli AU29541; assay: organism not typed
T19 construct: AU29541
From the text: as §1

B. cenocepacia AU22509 = tested on: T20, B. cenocepacia AU22509; assay: microbe, parasite or virus in culture; details: Burkholderia cenocepacia, AU22509
T20 construct: AU22509
From the text: as §1

B. multivorans AU14786 = tested on: T21, B. multivorans AU14786; assay: microbe, parasite or virus in culture; details: Burkholderia multivorans, AU14786
T21 construct: AU14786
From the text: as §1

B. multivorans AU15954 = tested on: T22, B. multivorans AU15954; assay: microbe, parasite or virus in culture; details: Burkholderia multivorans, AU15954
T22 construct: AU15954
From the text: as §1

| Compound | MIC (B. multivorans AU12481) | MIC (B. multivorans AU14364) | MIC (B. multivorans AU19518) | MIC (B. cenocepacia AU28111) | MIC (B. multivorans AU10047) | MIC (B. pyrrocinia AU4348) | MIC (B. dolosa AU29021) | MIC (B. stabilis AU9035) | MIC (B. multivorans AU19729) | MIC (B. cenocepacia AU3663) | MIC (B. multivorans AU17545) | MIC (B. cenocepacia AU19530) | MIC (B. cepacia AU0108) | MIC (B. cenocepacia AU12265) | MIC (B. vietnamiensis AU19457) | MIC (B. multivorans AU14371) | MIC (B. cepacia AU17630) | MIC (B. multivorans AU22892) | MIC (B. gladioli AU29541) | MIC (B. cenocepacia AU22509) | further results |
| --- | --- | --- | --- | --- | --- | --- | --- | --- | --- | --- | --- | --- | --- | --- | --- | --- | --- | --- | --- | --- | --- |
| CO/N=C(\C(=O)N[C@@H]1C(=O)N2C(C(=O)[O-])=C(C[N+]3(C)CCCC3)CS[C@H]12)c1csc(N)n1 [cefepime] | 2 µg/mL (≈ 4.16 µM) | > 32 µg/mL | 32 µg/mL (≈ 66.6 µM) | 32 µg/mL (≈ 66.6 µM) | 32 µg/mL (≈ 66.6 µM) | 32 µg/mL (≈ 66.6 µM) | > 32 µg/mL | 32 µg/mL (≈ 66.6 µM) | > 32 µg/mL | 32 µg/mL (≈ 66.6 µM) | 16 µg/mL (≈ 33.3 µM) | > 32 µg/mL | 8 µg/mL (≈ 16.6 µM) | 16 µg/mL (≈ 33.3 µM) | > 32 µg/mL | 8 µg/mL (≈ 16.6 µM) | > 32 µg/mL | 2 µg/mL (≈ 4.16 µM) | 32 µg/mL (≈ 66.6 µM) | > 32 µg/mL | MIC (B. multivorans AU14786): > 32 µg/mL; MIC (B. multivorans AU15954): 8 µg/mL (≈ 16.6 µM) |
| C[C@@H](O)[C@H]1C(=O)N2C(C(=O)O)=C(S[C@@H]3CN[C@H](C(=O)N(C)C)C3)[C@H](C)[C@H]12 [meropenem] | 2 µg/mL (≈ 5.22 µM) | 4 µg/mL (≈ 10.4 µM) | 16 µg/mL (≈ 41.7 µM) | 4 µg/mL (≈ 10.4 µM) | 16 µg/mL (≈ 41.7 µM) | 4 µg/mL (≈ 10.4 µM) | 8 µg/mL (≈ 20.9 µM) | 8 µg/mL (≈ 20.9 µM) | 16 µg/mL (≈ 41.7 µM) | 4 µg/mL (≈ 10.4 µM) | 2 µg/mL (≈ 5.22 µM) | 8 µg/mL (≈ 20.9 µM) | 4 µg/mL (≈ 10.4 µM) | 4 µg/mL (≈ 10.4 µM) | 4 µg/mL (≈ 10.4 µM) | 4 µg/mL (≈ 10.4 µM) | 4 µg/mL (≈ 10.4 µM) | 4 µg/mL (≈ 10.4 µM) | 8 µg/mL (≈ 20.9 µM) | 8 µg/mL (≈ 20.9 µM) | MIC (B. multivorans AU14786): 16 µg/mL (≈ 41.7 µM); MIC (B. multivorans AU15954): 4 µg/mL (≈ 10.4 µM) |
| C[C@H]1COc2c(N3CCN(C)CC3)c(F)cc3c(=O)c(C(=O)O)cn1c23 [levofloxacin] | 4 µg/mL (≈ 11.1 µM) | 32 µg/mL (≈ 88.6 µM) | 32 µg/mL (≈ 88.6 µM) | 4 µg/mL (≈ 11.1 µM) | 8 µg/mL (≈ 22.1 µM) | > 32 µg/mL | 4 µg/mL (≈ 11.1 µM) | 16 µg/mL (≈ 44.3 µM) | 16 µg/mL (≈ 44.3 µM) | 16 µg/mL (≈ 44.3 µM) | 8 µg/mL (≈ 22.1 µM) | 16 µg/mL (≈ 44.3 µM) | 2 µg/mL (≈ 5.53 µM) | 4 µg/mL (≈ 11.1 µM) | 16 µg/mL (≈ 44.3 µM) | 2 µg/mL (≈ 5.53 µM) | 4 µg/mL (≈ 11.1 µM) | 2 µg/mL (≈ 5.53 µM) | 8 µg/mL (≈ 22.1 µM) | 32 µg/mL (≈ 88.6 µM) | MIC (B. multivorans AU14786): > 32 µg/mL; MIC (B. multivorans AU15954): 2 µg/mL (≈ 5.53 µM) |
